For six compounds, Ki results are on record in BindingDB's records for doi:10.1021/bi051886s (Johnson & Johnson Pharmaceutical, 2006).

Test in all cases: Protease Inhibition Assay
Assay [1] concerns the target T1, Dimer of Gag-Pol polyprotein [490-588,L523I,E525D,M526I,I544V,L553H,H559K,L579M] (Human immunodeficiency virus 1, UniProt P05959, E525D/H559K/I544V/L523I/L553H/L579M/M526I).
T1 construct: 490-588

The target in assay [2] is T2, Dimer of Gag-Pol polyprotein [490-588,L523I,E525D,M526I,I544V,L553H,H559K,V572F,L579M] (Human immunodeficiency virus 1, UniProt P05959, E525D/H559K/I544V/L523I/L553H/L579M/M526I/V572F).
T2 construct: 490-588

Assay [3] addresses T3, Dimer of Gag-Pol polyprotein [501-599] (Human immunodeficiency virus 1, UniProt P03367).
T3 construct: 501-599
Particulars: pH 4.7; 37 °C.

For assay [4], the target named is T4, Dimer of Gag-Pol polyprotein [501-599,V583F] (Human immunodeficiency virus 1, UniProt P03367, V583F).
T4 construct: 501-599
To be noted: pH 4.7; 37 °C.

Assay [5] addresses T5, Dimer of Gag-Pol polyprotein [482-580,I502K,I528M,T553A] (Human immunodeficiency virus 1, UniProt P24740, I502K/I528M/T553A).
T5 construct: 482-580
Particulars: pH 4.7; 37 °C.

Assay [6] addresses T6, Dimer of Gag-Pol polyprotein [482-580,I502K,I528M,T553A,V564F] (Human immunodeficiency virus 1, UniProt P24740, I502K/I528M/T553A/V564F).
T6 construct: 482-580

The structures appear in SMILES notation.

`Cc1cccc(C)c1OCC(=O)N[C@@H](Cc1ccccc1)[C@@H](O)C[C@H](Cc1ccccc1)NC(=O)[C@H](C(C)C)N1CCCNC1=O` [(2S)-N-[(2S,4S,5S)-5-[2-(2,6-dimethylphenoxy)acetamido]-4-hydroxy-1,6-diphenylhexan-2-yl]-3-methyl-2-(2-oxo-1,3-diazinan-1-yl)butanamide]: the Ki in assay [1] worked out at 0.5 nM; in assay [2] it was 9 nM; in assay [3], 0.05 nM; in assay [4] it was 0.2 nM; in assay [5], 0.019 nM; in assay [6], 0.48 nM.

For the compound `COC(=O)N[C@H](C(=O)N[C@@H](Cc1ccccc1)[C@@H](O)CN(Cc1ccc(-c2ccccn2)cc1)NC(=O)[C@@H](NC(=O)OC)C(C)(C)C)C(C)(C)C` [CGP 73547], the Ki stood at 1.1 nM in assay [1]; 0.7 nM in assay [2]; 0.56 nM in assay [4]; 0.24 nM in assay [5]; 0.57 nM in assay [6].

Take `CC(C)(C)NC(=O)[C@@H]1CN(Cc2cccnc2)CCN1C[C@@H](O)C[C@@H](Cc1ccccc1)C(=O)N[C@H]1c2ccccc2C[C@H]1O` [Crixivan]: the Ki came out at 42 nM in assay [1], 1620 nM in assay [2], 6.9 nM in assay [5] and 108 nM in assay [6].

As to `CC(C)(C)NC(=O)[C@@H]1C[C@@H]2CCCC[C@@H]2CN1C[C@@H](O)[C@H](Cc1ccccc1)NC(=O)[C@H](CC(N)=O)NC(=O)c1ccc2ccccc2n1` [SQV], the inhibition constant (Ki) in assay [1] turned out to be 48 nM; in assay [2], 24 nM; in assay [5], 1.8 nM; in assay [6], 0.43 nM.

In the case of `CC(C)CN(C[C@@H](O)[C@H](Cc1ccccc1)NC(=O)O[C@H]1CCOC1)S(=O)(=O)c1ccc(N)cc1` [VX-478], the Ki in assay [1] turned out to be 1.4 nM; in assay [2], 23 nM; in assay [5] it was 0.4 nM; in assay [6] it was 1.2 nM.

Take `Cc1c(O)cccc1C(=O)N[C@@H](CSc1ccccc1)[C@H](O)CN1C[C@H]2CCCC[C@H]2C[C@H]1C(=O)NC(C)(C)C` [Viracept]: the inhibition constant (Ki) amounted to 17 nM in assay [1] and 146 nM in assay [2].

In general, Ki refers to a dissociation constant, usually derived from enzyme kinetics or from competition with a known ligand. High values mean lower affinity, low ones higher affinity.
